Test results: patent publication US8168651B2, “Protein kinase modulators” (Cylene Pharmaceuticals, Inc., priority 2008, dated 2012)
Like-named read-outs stand apart in the source and are kept apart here.

Columns and labels:
[1] = target: recombinant human PIM1 (Homo sapiens (Human), UniProt P11309); assay: PIM-1 kinase activity in cell-free in vitro assay; type: biochemical; conditions: cell-free assay; for inhibition at 0.5 µM / PIM-1: % inh 500 nM: 500 nM compound; for inhibition at 0.5 µM: read-out: PIM-1: % inh 500 nM
recombinant human PIM1, sequence (P11309 whole entry): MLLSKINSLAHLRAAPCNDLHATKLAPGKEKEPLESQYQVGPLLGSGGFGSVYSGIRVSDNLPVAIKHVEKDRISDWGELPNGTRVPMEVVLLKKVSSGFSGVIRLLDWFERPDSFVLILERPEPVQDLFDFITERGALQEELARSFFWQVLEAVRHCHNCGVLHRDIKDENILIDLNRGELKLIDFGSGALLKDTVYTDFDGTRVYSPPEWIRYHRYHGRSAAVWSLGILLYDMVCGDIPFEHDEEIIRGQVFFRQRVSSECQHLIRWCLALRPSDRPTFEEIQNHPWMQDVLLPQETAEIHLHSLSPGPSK

[2] = tested on: HCT-116 human colorectal carcinoma cells; assay: Cell-proliferation assay using Alamar Blue dye; type: cell-based; conditions: Homo sapiens;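 also: cells exposed to compound for about 4 days, then Alamar Blue added and dye fluorescence read after about 4 h, compared with medium-only control wells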
[3] = tested on: Jurkat; assay: Cell proliferation modulatory activity, Jurkat; type: cell-based
[4] = target: recombinant human CK2 (Homo sapiens (Human), UniProt P68400); assay: CK2 assay (cell-free, 33P-ATP filter plate); type: biochemical; conditions: 500 nM compound, cell-free assay; read-out: CK2: % inh 500 nM
recombinant human CK2, sequence (P68400 whole entry): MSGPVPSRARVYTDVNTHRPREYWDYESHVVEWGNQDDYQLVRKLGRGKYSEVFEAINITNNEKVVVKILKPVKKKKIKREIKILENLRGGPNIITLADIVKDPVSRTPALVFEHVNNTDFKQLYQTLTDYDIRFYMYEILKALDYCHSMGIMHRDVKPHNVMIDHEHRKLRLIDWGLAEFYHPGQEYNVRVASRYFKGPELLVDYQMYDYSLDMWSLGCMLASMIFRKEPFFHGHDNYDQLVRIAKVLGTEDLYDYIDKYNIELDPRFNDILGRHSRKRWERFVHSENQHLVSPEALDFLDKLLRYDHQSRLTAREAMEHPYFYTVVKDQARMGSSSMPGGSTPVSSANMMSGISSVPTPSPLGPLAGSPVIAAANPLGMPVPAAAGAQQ
recombinant human CK2, sequence (P67870 whole entry partner): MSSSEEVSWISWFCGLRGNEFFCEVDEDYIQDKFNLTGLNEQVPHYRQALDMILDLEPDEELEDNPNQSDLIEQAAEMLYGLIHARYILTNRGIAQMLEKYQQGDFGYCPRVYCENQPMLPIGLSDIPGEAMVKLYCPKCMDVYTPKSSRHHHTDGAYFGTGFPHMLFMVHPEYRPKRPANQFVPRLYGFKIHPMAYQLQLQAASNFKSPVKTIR

[5] = tested on: MV-4-11; assay: Cell proliferation modulatory activity, MV-4-11; type: cell-based; conditions: Homo sapiens, MV4-11; MV-4-11 cells
[6] = tested on: K-562; assay: Cell proliferation modulatory activity, K-562; type: cell-based; conditions: Homo sapiens, K562; K-562 cells
[7] = HCT-116, HCT-116, second HCT-116 column (c8), read-out: HCT-116 (uM), cell proliferation modulatory activity
[8] = HCT-116, second HCT-116 column (c8), read-out: HCT-116 (uM) cell proliferation modulatory activity

Compound | inhibition at 0.5 µM [1] [%] | IC50 [2, 7] [µM] | IC50 ([3]; Homo sapiens) [µM] | IC50 [1] [µM] | IC50 [2, 8] [µM] | inhibition at 0.5 µM [4] [%] | IC50 [5] [µM] | IC50 [6] [µM] | PIM-1: % inh 500 nM [1] [%] | IC50 [3] [µM]
O=C(O)c1ccc2c(c1)nc(NC1CC1)c1nc(NCCN3CCOCC3)ncc12 | 41.2 | > 10 | 21 |  |  |  |  |  |  | 
O=C(O)c1ccc2c(c1)nc(NC1CC1)c1nc(NC(CO)c3ccccc3)ncc12 (stereo not shown) | -22.8 | > 10 | 27.5 |  |  |  |  |  |  | 
O=C(O)c1ccc2c(c1)nc(NC1CC1)c1nc(NNCCO)ncc12 | -37 | > 10 | > 50 |  |  |  |  |  |  | 
O=C(O)c1ccc2c(c1)nc(NC1CC1)c1nc(NC3CCNCC3)ncc12 | 18.9 | > 10 | > 50 |  |  |  |  |  |  | 
COC(=O)c1ccc2c(c1)nc(N)c1nc(SC)ncc12 | -13.2 | 4.77 | 1.14 |  |  |  |  |  |  | 
C#Cc1cccc(Nc2nc3cc(C(=O)NC)ccc3c3cncnc23)c1 | -28.3 | 7.17 | 1.95 |  |  |  |  |  |  | 
C#Cc1cccc(Nc2nc3cc(C(=O)NC4CC4)ccc3c3cncnc23)c1 | -13.1 | 3.49 | 1.54 |  |  |  |  |  |  | 
O=C(O)c1ccc2c(c1)nc(NC1CC1)c1nc(Nc3ccc(F)cc3)ncc12 | 49.3 | > 10 | 5.02 | 1.07 |  |  |  |  |  | 
O=C(O)c1ccc2c(c1)nc(NC1CC1)c1nc(Nc3ccc(F)c(Cl)c3)ncc12 | 8.76 | > 10 | 26.6 |  |  |  |  |  |  | 
COc1ccc(Nc2ncc3c(n2)c(NC2CC2)nc2cc(C(=O)O)ccc23)cc1Cl | 38.7 | 2.31 | 9.17 |  |  |  |  |  |  | 
O=C(O)c1ccc2c(c1)nc(NC1CC1)c1nc(Nc3cccc4ccccc34)ncc12 | 22.9 | > 10 | 23.3 |  |  |  |  |  |  | 
CC(C)OCCCNc1nc2cc(C(=O)O)ccc2c2cnccc12 | 60.8 |  |  | 0.402 | > 10 | 98.5 | 7.01 | > 10 |  | 
COC(=O)c1ccc2c(c1)nc(NCCOC(C)C)c1ccncc12 | 39.1 |  |  |  | > 10 | 15.6 | 2.94 | > 10 |  | 
CC(C)OCCNc1nc2cc(C(=O)O)ccc2c2cnccc12 | 48.2 |  |  |  | > 10 | 93 | 9.46 | > 10 |  | 
COC(=O)c1ccc2c(c1)nc(NCCN1CCCC1)c1ccncc12 | 17.8 |  |  |  | 0.9 | 8.15 | 0.368 | 1.25 |  | 
O=C(O)c1ccc2c(c1)nc(Nc1cc(F)ccc1Br)c1ccncc12 | 64.5 |  |  | 0.376 | > 10 | 98.4 | 4.13 | > 10 |  | 
O=C(O)c1ccc2c(c1)nc(Nc1cccc(CO)c1)c1ccncc12 | 64.7 |  |  | 0.321 | > 10 | 97.5 | > 10 | > 10 |  | 
N#Cc1ccc(Nc2nc3cc(C(=O)O)ccc3c3cnccc23)cc1 | 67.3 |  |  | 0.31 | > 10 | 95.6 | > 10 | > 10 |  | 
NC(=O)c1cc(F)cc(Nc2nc3cc(C(=O)O)ccc3c3cnccc23)c1 | 85 |  |  | 0.093 | > 10 | 99.2 | > 10 | > 10 |  | 
NC(=O)c1cc(Cl)cc(Nc2nc3cc(C(=O)O)ccc3c3cnccc23)c1 | 90.5 |  |  | 0.09 | > 10 | 102 | > 10 | > 10 |  | 
CCc1cccc(Nc2nc3cc(C(=O)O)ccc3c3cnccc23)c1 | 85 |  |  | 0.122 | > 10 | 101 | 3.64 | > 10 |  | 
CC(C)c1cccc(Nc2nc3cc(C(=O)O)ccc3c3cnccc23)c1 | 72.4 |  |  | 0.485 | > 10 | 99.5 | 3.16 | > 10 |  | 
NC(=O)c1cccc(Nc2nc3cc(C(=O)O)ccc3c3cnccc23)c1 | 74.8 |  |  | 0.16 | > 10 | 101 | > 10 | > 10 |  | 
COc1ccc(Nc2nc3cc(C(=O)O)ccc3c3cnccc23)cc1OC | 59.3 |  |  | 0.311 | > 10 | 98.5 | > 10 | > 10 |  | 
O=C(O)c1ccc2c(c1)nc(Nc1ccc3c(c1)OCO3)c1ccncc12 | 76 |  |  | 0.157 | > 10 | 101 | 8.87 | > 10 |  | 
NC(=O)c1ccc(Nc2nc3cc(C(=O)O)ccc3c3cnccc23)cc1 | 78.2 |  |  | 0.248 | > 10 | -5.09 | > 10 | > 10 |  | 
O=C(O)c1ccc2c(c1)nc(Nc1cncc(C3CC3)c1)c1ccncc12 [drawing 1619] |  | > 10 | > 50 |  |  |  |  |  |  | 
CC1CCCCN1CCCNc1ncc2c(n1)c(Nc1ccc(F)c(Cl)c1)nc1cc(C(=O)O)ccc12 (stereo not shown) [drawing 1629] | 38.9 |  | 2.86 |  |  |  |  |  |  | 
COc1cccc(Nc2ncc3c(n2)c(NC2CC2)nc2cc(C(=O)O)ccc23)c1 [drawing 1717] |  |  |  |  |  |  |  |  | 5.494 | 54.6
COc1cccc(Nc2ncc3c(n2)c(NC2CC2)nc2cc(C(=O)O)ccc23)c1 [drawing 1720] |  |  |  | 0.97 |  |  |  |  | 60.859 | 3.15
